Measurements as given in patent US9854804B2, “Antifungal composition comprising polycyclic peptide compound and method for preparing the same” (KOREAN RESEARCH INSTITUTE OF BIOSCIENCE AND BIOTECHNOLOGY, priority 2011, dated 2018).
Values after ≈ are worked out from the molar mass of the structure shown. Read-outs that look alike come from different tables or passages of the source.

Key:
[1] = test system: VRE 11; assay: Antibacterial activity against vancomycin-resistant bacteria (MIC); assay type: cell-based; conditions: Enterococcus
Protocol: (§1) Test strains were maintained in MHB (Mueller Hinton broth), and antibacterial activity was measured using a broth microdilution method. After being incubated overnight, each of the test stains was diluted to a population of 2×100,000 cells/ml, and aliquoted in an amount of 100 μl per well into 96-well plates. Complestatin, neuroprotectin A and positive controls such as vancomycin, oxacillin and nofloxacin were treated at concentration with gradual dilution by 2-fold from maximum concentration of 128 μg/ml. Each compound was diluted in dimethylsulxoside (DMSO), and the concentration of DMSO was adjusted to approximately 1/100 before application. After incubation for 20 hrs, absorbance was read at 650 nm to examine the growth of bacterial cells.
(§2) The compounds of the present invention, complestatin and neuroprotectin A were examined for antibacterial activity against vacomycin-resistant bacteria in the same manner as in Example 4, and the results are given in Table 4, below.

[2] = test system: VRE 3; assay: as above; assay type: cell-based; conditions: Enterococcus
Protocol: as §1, §2

[3] = test system: VRE 7; assay: as above; assay type: cell-based; conditions: Enterococcus
Protocol: as §1, §2

[4] = test system: Entercoccus faecium KCTC 3511; assay: Broth microdilution antibacterial activity (MIC); assay type: cell-based; conditions: Enterococcus faecium, KCTC3511
Protocol: as §1

[5] = test system: Bacillus cereus KCTC 1661; assay: Broth microdilution antibacterial activity (MIC); assay type: cell-based; conditions: KCTC1661
Protocol: as §1

[6] = test system: Staphylococcus aureus 209; assay: Broth microdilution antibacterial activity (MIC); assay type: cell-based
Protocol: as §1

[7] = test system: Staphylococcus epidermidis KCTC 3958; assay: Broth microdilution antibacterial activity (MIC); assay type: cell-based; conditions: KCTC3958
Protocol: as §1

[8] = test system: Entercoccus faecium KCTC 5191; assay: Broth microdilution antibacterial activity (MIC); assay type: cell-based; conditions: Enterococcus faecium, KCTC5191
Protocol: as §1

[9] = test system: Bacillus subtilis KCTC 1021; assay: Broth microdilution antibacterial activity (MIC); assay type: cell-based; conditions: KCTC1021
Protocol: as §1

[10] = test system: Vancomycin-resistant S. aureus (VRSA) and Vancomycin-resistant Enterococcus (VRE); assay: Antibacterial activity, vancomycin-resistant bacteria of Table 4; assay type: cell-based
Protocol: as §1, §2

[11] = test system: VRSA 48; assay: Antibacterial activity against vancomycin-resistant bacteria (MIC); assay type: cell-based, Vancomycin-resistant S. aureus; conditions: Staphylococcus aureus
Protocol: as §1, §2

[12] = test system: QRSA CCARM 3519; assay: Broth microdilution antibacterial activity (MIC); assay type: cell-based, Quinolone-resistant Staphylococcus aureus; conditions: Staphylococcus aureus, CCARM3519
Protocol: as §1

[13] = test system: QRSA CCARM 3505; assay: Broth microdilution antibacterial activity (MIC); assay type: cell-based, Quinolone-resistant Staphylococcus aureus; conditions: Staphylococcus aureus, CCARM3505
Protocol: as §1

[14] = test system: Staphylococcus aureus RN 4220; assay: Broth microdilution antibacterial activity (MIC); assay type: cell-based
Protocol: as §1, §2

[15] = test system: MRSA CCARM 3506; assay: Broth microdilution antibacterial activity (MIC); assay type: cell-based, Methicillin-resistant Staphylococcus aureus; conditions: Staphylococcus aureus
Protocol: as §1

[16] = test system: MRSA CCARM 3167; assay: Broth microdilution antibacterial activity (MIC); assay type: cell-based, Methicillin-resistant Staphylococcus aureus; conditions: Staphylococcus aureus
Protocol: as §1

[17] = test system: Staphylococcus aureus, Bacillus subtilis, Bacillus cereus, Enterococcus faecium and Staphylococcus epidermis, MRSA, QRSA; assay: Antibacterial activity, summary over the panel of Table 3; assay type: cell-based
Protocol: as §1

[18] = Entercoccus faecium KCTC 3511, read-out: MIC
[19] = Bacillus cereus KCTC 1661, read-out: MIC
[20] = Staphylococcus aureus 209, 20 hrs incubation, MHB, read-out: MIC
[21] = Staphylococcus epidermidis KCTC 3958, read-out: MIC
[22] = Entercoccus faecium KCTC 5191, read-out: MIC
[23] = Bacillus subtilis KCTC 1021, read-out: MIC
[24] = against VRSA and VRE (text summary of Table 4), read-out: MIC
[25] = RN4220, Staphylococcus aureus RN 4220, Table 3, read-out: MIC

SMILES	MIC ([1]; VRE 11, read-out: MIC) [µg/mL]	MIC ([2]; VRE 3, read-out: MIC) [µg/mL]	MIC ([3]; VRE 7, read-out: MIC) [µg/mL]	MIC [4, 18] [µg/mL]	MIC [5, 19] [µg/mL]	MIC [6, 20] [µg/mL]	MIC [7, 21] [µg/mL]	MIC [8, 22] [µg/mL]	MIC [9, 23] [µg/mL]	MIC [10, 24] [µg/mL]	MIC ([11]; VRSA 48, read-out: MIC) [µg/mL]	MIC ([12]; QRSA CCARM 3519, read-out: MIC) [µg/mL]	MIC ([13]; QRSA CCARM 3505, read-out: MIC) [µg/mL]	MIC [14, 25] [µg/mL]	MIC ([14]; S. aureus RN 4220, Table 4) [µg/mL]	MIC ([15]; MRSA CCARM 3506, read-out: MIC) [µg/mL]	MIC ([16]; MRSA CCARM 3167, read-out: MIC) [µg/mL]	MIC [17] [µg/mL]	other results
CN1C(=O)C(c2cc(Cl)c(O)c(Cl)c2)NC(=O)C2NC(=O)C(c3cc(Cl)c(O)c(Cl)c3)NC(=O)C(NC(=O)C(=O)c3cc(Cl)c(O)c(Cl)c3)Cc3c[nH]c4cc(ccc34)-c3cc2cc(c3O)Oc2ccc(cc2)CC1C(=O)NC(C(=O)O)c1ccc(O)cc1 (centres unmarked) [Complestatin]	1 (≈ 0.753 µM)	1 (≈ 0.753 µM)	1 (≈ 0.753 µM)	2 (≈ 1.51 µM)	0.5 (≈ 0.376 µM)	2 (≈ 1.51 µM)	2 (≈ 1.51 µM)	2 (≈ 1.51 µM)	0.5 (≈ 0.376 µM)	1 (≈ 0.753 µM)	1 (≈ 0.753 µM)	2 (≈ 1.51 µM)	1 (≈ 0.753 µM)	1 (≈ 0.753 µM)	1 (≈ 0.753 µM)	1 (≈ 0.753 µM)	1 (≈ 0.753 µM)	0.5 to 2 (≈ 0.376 to 1.51 µM)	
CN1C(=O)C(c2cc(Cl)c(O)c(Cl)c2)NC(=O)C2NC(=O)C(c3cc(Cl)c(O)c(Cl)c3)NC(=O)C(NC(=O)C(=O)c3cc(Cl)c(O)c(Cl)c3)CC3C(=O)Nc4cc(ccc43)-c3cc2cc(c3O)Oc2ccc(cc2)CC1C(=O)NC(C(=O)O)c1ccc(O)cc1 (centres unmarked) [Neuroprotectin A]	1 (≈ 0.744 µM)	1 (≈ 0.744 µM)	1 (≈ 0.744 µM)	2 (≈ 1.49 µM)	0.5 (≈ 0.372 µM)	2 (≈ 1.49 µM)	2 (≈ 1.49 µM)	2 (≈ 1.49 µM)	0.5 (≈ 0.372 µM)	1 (≈ 0.744 µM)	1 (≈ 0.744 µM)	2 (≈ 1.49 µM)	1 (≈ 0.744 µM)	1 (≈ 0.744 µM)	1 (≈ 0.744 µM)	1 (≈ 0.744 µM)	1 (≈ 0.744 µM)	0.5 to 2 (≈ 0.372 to 1.49 µM)	
CCn1cc(C(=O)O)c(=O)c2cc(F)c(N3CCNCC3)cc21 [Norfloxacin]	200 (≈ 626 µM)	50 (≈ 157 µM)	50 (≈ 157 µM)	4 (≈ 12.5 µM)	1 (≈ 3.13 µM)	0.25 (≈ 0.783 µM)	0.5 (≈ 1.57 µM)	4 (≈ 12.5 µM)	0.25 (≈ 0.783 µM)		200 (≈ 626 µM)	125 (≈ 391 µM)	250 (≈ 783 µM)	1 (≈ 3.13 µM)	1 (≈ 3.13 µM)	1 (≈ 3.13 µM)	8 (≈ 25.1 µM)		
Cc1onc(-c2ccccc2)c1C(=O)N[C@@H]1C(=O)N2[C@@H]1SC(C)(C)[C@@H]2C(=O)O [Oxacillin]	> 200	> 200	> 200	8 (≈ 19.9 µM)	32 (≈ 79.7 µM)	0.25 (≈ 0.623 µM)	0.25 (≈ 0.623 µM)	4 (≈ 9.96 µM)	0.25 (≈ 0.623 µM)	> 200	> 200	0.5 (≈ 1.25 µM)	0.5 (≈ 1.25 µM)	0.25 (≈ 0.623 µM)	0.25 (≈ 0.623 µM)	500 (≈ 1250 µM)	500 (≈ 1250 µM)		
CN[C@H](CC(C)C)C(=O)N[C@H]1C(=O)N[C@@H](CC(N)=O)C(=O)N[C@H]2C(=O)N[C@H]3C(=O)N[C@H](C(=O)N[C@H](C(=O)O)c4cc(O)cc(O)c4-c4cc3ccc4O)[C@H](O)c3ccc(c(Cl)c3)Oc3cc2cc(c3O[C@@H]2O[C@H](CO)[C@@H](O)[C@H](O)[C@H]2O[C@H]2C[C@](C)(N)[C@H](O)[C@H](C)O2)Oc2ccc(cc2Cl)[C@H]1O [Vancomycin]															1 (≈ 0.69 µM)				MIC ([1]; VRE): > 200 µg/mL; MIC ([2]; VRE): > 200 µg/mL; MIC ([3]; VRE): > 200 µg/mL; MIC [4]: 2 µg/mL (≈ 1.38 µM); MIC ([5]; Bacillus cereus): 1 µg/mL (≈ 0.69 µM); MIC ([6]; Staphylococcus aureus, 209, 20 h): 0.5 µg/mL (≈ 0.345 µM); MIC ([7]; Staphylococcus epidermidis): 2 µg/mL (≈ 1.38 µM); MIC [8]: 1 µg/mL (≈ 0.69 µM); MIC ([9]; Bacillus subtilis): 0.125 µg/mL (≈ 0.0863 µM); MIC ([10]; VRE): > 200 µg/mL; MIC ([11]; VRSA): > 200 µg/mL; MIC [12]: 1 µg/mL (≈ 0.69 µM); MIC [13]: 1 µg/mL (≈ 0.69 µM); MIC ([14]; Staphylococcus aureus, RN4220): 1 µg/mL (≈ 0.69 µM); MIC [15]: 0.5 µg/mL (≈ 0.345 µM); MIC [16]: 2 µg/mL (≈ 1.38 µM)
